# Counter-ions that a name gives are not always drawn. Like-named read-outs stand apart in the source and are kept apart here.
# Legend:
# [1] = tested on: A/PR/8/34 influenza virus; assay: microbe, parasite or virus in culture; assay type: cell-based
# [2] = tested on: influenza A virus (A/PR/8/34); assay: microbe, parasite or virus in culture; assay type: cell-based
# [3] = Influenza A virus, PR/8, MDCK, MDCK cells infected with A/PR/8/34, replication of influenza virus (viral RNA, bDNA), class symbols, read-out: EC50 (mean all)
# [4] = Influenza A virus, PR/8, MDCK, MDCK cells infected with A/PR/8/34, survival of infected cells, class symbols, read-out: IC50 (mean all)
# [5] = Influenza A virus, PR/8, MDCK, MDCK cells infected with A/PR/8/34, bDNA viral RNA, read-out: EC50 (mean all)
# [6] = Influenza A virus, PR/8, MDCK, MDCK cells infected with A/PR/8/34, cell protection (CPE), read-out: IC50 (mean all)
# [7] = mean all, bDNA viral RNA in MDCK cells infected with A/PR/8/34, read-out: EC50
# [8] = mean all, MDCK cells infected with A/PR/8/34, cell protection (CPE), read-out: IC50
# [9] = Influenza A virus, PR/8, MDCK, mean all, A/PR/8/34 influenza virus in MDCK cells, bDNA assay, read-out: EC50
# [10] = Influenza A virus, PR/8, MDCK, mean all, A/PR/8/34 infected MDCK cells, CPE assay, read-out: IC50
# [11] = bDNA assay, A/PR/8/34 influenza virus replication in MDCK cells, class symbols, read-out: EC50 (mean all)
# [12] = CPE assay, A/PR/8/34 infected MDCK cells, class symbols, read-out: IC50 (mean all)
# [13] = Influenza A virus, PR/8, MDCK, bDNA assay, A/PR/8/34 influenza virus replication in MDCK cells, class symbols, read-out: EC50 (mean all)
# [14] = Influenza A virus, PR/8, MDCK, CPE assay, A/PR/8/34 infected MDCK cells, class symbols, read-out: IC50 (mean all)
structure (smiles),measurement,setting,value
"CN(C)C(=O)[C@@H]1CCCC[C@@H]1Nc1nc(-c2c[nH]c3ncc(Cl)cc23)ncc1F (relative stereo) [Compound 543, Cis-2-(2-(5-chloro-1H-pyrrolo[2,3-b]pyridin-3-yl)-5-fluoropyrimidin-4-ylamino)-N,N-dimethylcyclohexanecarboxamide]",EC50,[1]; [3],< 5 µM
same,IC50,[2]; [4],< 5 µM
"CC(C)(C)C(=O)N1CCC[C@H](CNc2nc(-c3c[nH]c4ncc(Cl)cc34)ncc2F)C1 [Compound 105, (R)-1-(3-((2-(5-chloro-1H-pyrrolo[2,3-b]pyridin-3-yl)-5-fluoropyrimidin-4-ylamino)methyl)piperidin-1-yl)-2,2-dimethylpropan-1-one]",EC50,[1]; [5],< 5 µM
same,IC50,[2]; [6],< 5 µM
Fc1cnc(-c2c[nH]c3ncc(Cl)cc23)nc1NC1CCCN(CC2CCCOC2)C1 (stereo not drawn) [Compound 676],EC50,[1]; [7],< 5 µM
same,IC50,[2]; [8],< 5 µM
"CS(=O)(=O)N1CCC[C@H](Nc2nc(-c3c[nH]c4ncc(Cl)cc34)ncc2F)C1 [Compound 389, (S)-2-(5-chloro-1H-pyrrolo[2,3-b]pyridin-3-yl)-5-fluoro-N-(1-(methylsulfonyl)piperidin-3-yl)pyrimidin-4-amine]",EC50,[1]; [9],< 5 µM
same,IC50,[2]; [10],< 5 µM
"C=CCOC(=O)N1CCC[C@H](CNc2nc(-c3c[nH]c4ncc(Cl)cc34)ncc2F)C1 [Compound 119, (R)-allyl 3-((2-(5-chloro-1H-pyrrolo[2,3-b]pyridin-3-yl)-5-fluoropyrimidin-4-ylamino)methyl)piperidine-1-carboxylate]",EC50,[1]; [5],< 5 µM
same,IC50,[2]; [6],< 5 µM
"CCNC(=O)N1CCCC[C@@H]1CNc1nc(-c2c[nH]c3ncccc23)ncc1F [Compound 373, (R)—N-ethyl-2-((5-fluoro-2-(1H-pyrrolo[2,3-b]pyridin-3-yl)pyrimidin-4-ylamino)-methyl)piperidine-1-carboxamide]",EC50,[1]; [9],> 10 µM
same,IC50,[2]; [10],5 to 20 µM
"O=C(COCc1ccccc1)N1CCC[C@H](CNc2nc(-c3c[nH]c4ncc(Cl)cc34)ncc2F)C1 [Compound 106, (R)-2-(benzyloxy)-1-(3-((2-(5-chloro-1H-pyrrolo[2,3-b]pyridin-3-yl)-5-fluoropyrimidin-4-ylamino)methyl)piperidin-1-yl)ethanone]",EC50,[1]; [5],< 5 µM
same,IC50,[2]; [6],< 5 µM
"CCCS(=O)(=O)N1CCC[C@@H](Nc2nc(-c3c[nH]c4ncc(Cl)cc34)ncc2F)C1 [Compound 316, (R)-2-(5-chloro-1H-pyrrolo[2,3-b]pyridin-3-yl)-5-fluoro-N-(1-(propylsulfonyl)piperidin-3-yl)pyrimidin-4-amine]",EC50,[1]; [9],< 5 µM
same,IC50,[2]; [10],5 to 20 µM
COCCNC(=O)[C@@H]1CCC[C@H](Nc2nc(-c3c[nH]c4ncc(Cl)cc34)ncc2F)C1 [Compound 789],EC50,"[1]; mean all, A/PR/8/34 influenza virus replication, bDNA, read-out: EC50",< 5 µM
same,IC50,[2]; read-out: IC50,< 5 µM
CC(C)(C)C(=O)NC1CCCC(Nc2nc(-c3c[nH]c4ncc(Cl)cc34)ncc2F)C1 (stereo not drawn) [Compound 723],EC50,[1]; [7],< 5 µM
same,IC50,[2]; [8],< 5 µM
"CC(C)(C)OC(=O)N1CCC[C@H](CNc2nc(-c3c[nH]c4ncc(Cl)cc34)ncc2F)C1 [Compound 15, (R)-tert-butyl 3-((2-(5-chloro-1H-pyrrolo[2,3-b]pyridin-3-yl)-5-fluoropyrimidin-4-ylamino)methyl)piperidine-1-carboxylate]",EC50,[1]; [5],< 5 µM
same,IC50,[2]; [6],5 to 20 µM
"O=S(=O)(CCCCl)N1CCCC[C@@H]1CNc1nc(-c2c[nH]c3ncc(Cl)cc23)ncc1F [Compound 330, (R)-2-(5-chloro-1H-pyrrolo[2,3-b]pyridin-3-yl)-N-((1-(3-chloropropylsulfonyl)piperidin-2-yl)methyl)-5-fluoropyrimidin-4-amine]",EC50,[1]; [9],< 5 µM
same,IC50,[2]; [10],< 5 µM
"CC#CCOC(=O)N1CCC[C@H](CNc2nc(-c3c[nH]c4ncc(Cl)cc34)ncc2F)C1 [Compound 127, (R)-but-2-ynyl 3-((2-(5-chloro-1H-pyrrolo[2,3-b]pyridin-3-yl)-5-fluoropyrimidin-4-ylamino)methyl)piperidine-1-carboxylate]",EC50,"[1]; Influenza A virus, PR/8, MDCK, read-out: EC50 (mean all)",< 5 µM
same,IC50,"[2]; Influenza A virus, PR/8, MDCK, read-out: IC50 (mean all)",< 5 µM
O=C(NC1CCCC(Nc2nc(-c3c[nH]c4ncc(F)cc34)ncc2F)C1)C1CCCCO1 (stereo not drawn) [Compound 704],EC50,[1]; [7],< 5 µM
same,IC50,[2]; [8],< 5 µM
OC(CN1CCCC(Nc2nc(-c3c[nH]c4ncc(Cl)cc34)ncc2F)C1)C(F)(F)F (stereo not drawn) [Compound 614],EC50,[1]; [11],< 5 µM
same,IC50,[2]; [12],< 5 µM
CCCNC(=O)N1CCCC(Nc2nc(-c3c[nH]c4ncc(Cl)cc34)ncc2F)C1 (stereo not drawn) [Compound 196],EC50,[1]; read-out: EC50 (mean all),< 5 µM
same,IC50,[2]; read-out: IC50 (mean all),< 5 µM
O=C(C(O)CO)N1CCCC(Nc2nc(-c3c[nH]c4ncc(Cl)cc34)ncc2F)C1 (stereo not drawn) [Compound 623],EC50,[1]; [11],< 5 µM
same,IC50,[2]; [12],< 5 µM
"COCC(=O)N[C@@H]1CCCC[C@H]1CNc1nc(-c2c[nH]c3ncc(Cl)cc23)ncc1F (relative stereo) [Compound 556, N-(trans-2-((2-(5-chloro-1H-pyrrolo[2,3-b]pyridin-3-yl)-5-fluoropyrimidin-4-ylamino)methyl)cyclohexyl)-2-methoxyethanamide]",EC50,[1]; [3],< 5 µM
same,IC50,[2]; [4],> 10 µM
"NC(=O)N1CCCC(Nc2nc(-c3c[nH]c4ncc(Cl)cc34)ncc2F)CC1 (stereo not drawn) [Compound 509, 4-(2-(5-chloro-1H-pyrrolo[2,3-b]pyridin-3-yl)-5-fluoropyrimidin-4-ylamino)azepane-1-carboxamide]",EC50,[1]; [3],< 5 µM
same,IC50,[2]; [4],< 5 µM
O=C(N[C@@H]1CCC[C@H](Nc2nc(-c3c[nH]c4ncc(Cl)cc34)ncc2F)C1)OCC1CCOC1 (stereo partly drawn) [Compound 648],EC50,[1]; [13],< 5 µM
same,IC50,[2]; [14],< 5 µM
O=C(O)[C@@H]1CCCC[C@@H]1Nc1nc(-c2c[nH]c3ncc(Cl)cc23)ncc1F (relative stereo) [Compound 554],EC50,"[1]; […], replication of influenza virus (viral RNA, bDNA), class symbols, read-out: EC50 (mean all)",5 to 10 µM
same,IC50,[2]; read-out: IC50 (mean all),> 10 µM
"O=S(=O)(CC(F)(F)F)N1CCCC[C@@H]1CNc1nc(-c2c[nH]c3ncc(Cl)cc23)ncc1F [Compound 383, (R)-2-(5-chloro-1H-pyrrolo[2,3-b]pyridin-3-yl)-5-fluoro-N-((1-(2,2,2-trifluoro-ethylsulfonyl)-piperidin-2-yl)methyl)pyrimidin-4-amine]",EC50,[1]; [9],< 5 µM
same,IC50,[2]; [10],< 5 µM
CN1CCCC[C@H](Nc2nc(-c3c[nH]c4ncc(Cl)cc34)ncc2F)C1=O [Compound 461],EC50,[1]; [9],< 5 µM
same,IC50,[2]; [10],< 5 µM
"CCC1(O)CCCC(Nc2nc(-c3c[nH]c4ncc(Cl)cc34)ncc2F)C1 (single isomer, unassigned) [Compound 710]",EC50,[1]; [7],< 5 µM
same,IC50,[2]; [8],< 5 µM
"CCOC(=O)CNC(=O)N1CCC[C@@H](CNc2nc(-c3c[nH]c4ncc(Cl)cc34)ncc2F)C1 [Compound 25, (S)-ethyl 2-(3-((2-(5-chloro-1H-pyrrolo[2,3-b]pyridin-3-yl)-5-fluoropyrimidin-4-ylamino)methyl)piperidine-1-carboxamido)ethanoate]",EC50,[1]; [5],< 5 µM
same,IC50,[2]; [6],< 5 µM
"O=C(N[C@@H]1CCC[C@H](Nc2nc(-c3c[nH]c4ncc(Cl)cc34)ncc2F)C1)C1CCCO1 (stereo partly drawn) [Compound 638, N-[1R,3S)-3-[[2-(5-chloro-1H-pyrrolo[2,3-b]pyridin-3-yl)-5-fluoro-pyrimidin-4-yl]amino]cyclohexyl]tetrahydrofuran-2-carboxamide hydrochloride]",EC50,[1]; [13],< 5 µM
same,IC50,[2]; [14],< 5 µM
"O=C(CCO)N[C@@H]1CCC[C@H](Nc2nc(-c3c[nH]c4ncc(Cl)cc34)ncc2F)C1 [Compound 634, N-[(1R,3S)-3-[[2-(5-chloro-1H-pyrrolo[2,3-b]pyridin-3-yl)-5-fluoro-pyrimidin-4-yl]amino]cyclohexyl]-3-hydroxy-propanamide hydrochloride]",EC50,[1]; [13],< 5 µM
same,IC50,[2]; [14],< 5 µM
O[C@@H]1[C@H](O)CCC[C@@H]1Nc1nc(-c2c[nH]c3ncc(Cl)cc23)ncc1F [Compound 632],EC50,[1]; [13],< 5 µM
same,IC50,[2]; [14],< 5 µM
N#CCC(=O)NC1CCCC(Nc2nc(-c3c[nH]c4ncc(Cl)cc34)ncc2F)C1 (stereo not drawn) [Compound 724],EC50,[1]; [7],< 5 µM
same,IC50,[2]; [8],< 5 µM
"COCCOC(=O)N1CCCC[C@H]1CNc1nc(-c2c[nH]c3ncc(Cl)cc23)ncc1F [Compound 161, (S)-2-methoxyethyl 2-((2-(5-chloro-1H-pyrrolo[2,3-b]pyridin-3-yl)-5-fluoropyrimidin-4-ylamino)methyl)piperidine-1-carboxylate]",EC50,[1]; [5],< 5 µM
same,IC50,[2]; [6],> 20 µM
"C=CCOC(=O)N1CCOCC1CNc1nc(-c2c[nH]c3ncc(Cl)cc23)ncc1F (stereo not drawn) [Compound 528, Allyl 3-((2-(5-chloro-1H-pyrrolo[2,3-b]pyridin-3-yl)-5-fluoropyrimidin-4-ylamino)methyl)morpholine-4-carboxylate]",EC50,[1]; [3],> 10 µM
same,IC50,[2]; [4],5 to 20 µM
"COCCC(=O)N1CCC[C@H](CNc2ccnc(-c3c[nH]c4ncc(Cl)cc34)n2)C1 [Compound 493, (R)-1-(3-((2-(5-chloro-1H-pyrrolo[2,3-b]pyridin-3-yl)pyrimidin-4-ylamino)methyl)piperidin-1-yl)-3-methoxypropan-1-one]",EC50,[1]; [3],< 5 µM
same,IC50,[2]; [4],< 5 µM
CC1(C(=O)O)CCCCC1Nc1nc(-c2c[nH]c3ncc(Cl)cc23)ncc1F (stereo not drawn) [Compound 677],EC50,[1]; [7],< 5 µM
same,IC50,[2]; [8],< 5 µM

# Source: patent publication US8829007B2 (priority 2009, dated 2014)
